Data from US9302999B2, “Substituted triazoles as herbicides” (E. I. DU PONT DE NEMOURS AND COMPANY, priority 2012, dated 2016).

Assays:
Format in all cases: in vivo
[1] = test system: field poppy (Papaver rhoeas); assay: Test D pre-/postemergence: field poppy; settings: Postemergence; for Plant response rating, Field Poppy: 16 g ai/ha, scale 0 to 100
Excerpt: (§1) Seeds of plant species selected from bluegrass (annual bluegrass, Poa annua), blackgrass (Alopecurus myosuroides), canarygrass (Phalaris minor), chickweed (common chickweed, Stellaria media), galium (catchweed bedstraw, Galium aparine), bromegrass, downy (downy bromegrass, Bromus tectorum), field poppy (Papaver rhoeas), field violet (Viola arvensis), foxtail, green (green foxtail, Setaria viridis), deadnettle (henbit deadnettle, Lamium amplexicaule), ryegrass, Italian (Italian ryegrass, Lolium multiflorum), kochia (Kochia scoparia), lambsquarters (Chenopodium album), oilseed rape (Brassica napus), pigweed (Amaranthus retroflexus), Russian thistle (Salsola iberica), chamomile (scentless chamomile, Matricaria inodora), speedwell (bird's-eye speedwell, Veronica persica), barley, spring (spring barley, Hordeum vulgare), wheat, spring (spring wheat, Triticum aestivum), buckwheat, wild (wild buckwheat, Polygonum convolvulus), mustard, wild (wild mustard, Sinapis arvensis), oat, wild (wild oat, Avena fatua), radish, wild (wild radish, Raphanus raphanistrum), windgrass (Apera spica-venti), barley, winter (winter barley, Hordeum vulgare), and wheat, winter (winter wheat, Triticum aestivum) were planted into a silt loam soil and treated preemergence with test chemicals formulated in a non-phytotoxic solvent mixture which included a surfactant. At the same time, these same crop and weed species were planted in pots containing the planting medium comprising spaghnum peat moss, vermiculite, wetting agent and starter nutrients and treated with postemergence applications of the test chemicals formulated in the same manner. Plants ranged in height from 2 to 18 cm (1- to 4-leaf stage).
(§2) Treated plants and controls were maintained in a controlled growth environment for 14 to 21 days after which time all species were compared to controls and visually evaluated. Plant response ratings, summarized in Table D, are based on a scale of 0 to 100 where 0 is no effect and 100 is complete control. A dash (-) response means no test result.

[2] = test system: field violet (Viola arvensis); assay: Test D pre-/postemergence: field violet
Excerpt: as §1, §2

[3] = test system: speedwell (bird's-eye speedwell, Veronica persica); assay: Test D pre-/postemergence: speedwell
Excerpt: as §1, §2

[4] = test system: windgrass (Apera spica-venti); assay: Test D pre-/postemergence: windgrass
How it was run: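 Pre- and postemergence herbicide screen. Soil for pre: silt loam; post medium: peat moss, vermiculite, wetting agent, starter nutrients. Plant stage at post: 1- to 4-leaf. Readout: visual % control, 14–21 days.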

[5] = test system: barley, winter (winter barley, Hordeum vulgare); assay: Test D pre-/postemergence: barley, winter
Excerpt: as §1, §2

[6] = 31 g ai/ha, scale 0 to 100 (0 no effect, 100 complete control)
[7] = 62 g ai/ha, scale 0 to 100 (0 no effect, 100 complete control)
[8] = 125 g ai/ha, scale 0 to 100, 0 no effect, 100 complete control
[9] = 250 g ai/ha, scale 0 to 100 (0 no effect, 100 complete control)
[10] = Postemergence, 31 g ai/ha, scale 0 to 100 (0 no effect, 100 complete control)
[11] = Postemergence, 62 g ai/ha, scale 0 to 100 (0 no effect, 100 complete control)
[12] = Postemergence, 125 g ai/ha, scale 0 to 100, 0 no effect, 100 complete control
[13] = Postemergence, 250 g ai/ha, scale 0 to 100 (0 no effect, 100 complete control)
[14] = Preemergence, 31 g ai/ha, scale 0 to 100, 0 no effect, 100 complete control
[15] = Preemergence, 62 g ai/ha, scale 0 to 100
[16] = Preemergence, 125 g ai/ha, scale 0 to 100
[17] = Preemergence, 250 g ai/ha, scale 0 to 100
[18] = Postemergence, 16 g ai/ha, scale 0 to 100

Structure (SMILES)	Plant response rating: Field Poppy [1, 6]	Plant response rating: Field Poppy [1, 7]	Plant response rating: Field Poppy [1, 8]	Plant response rating: Field Poppy [1, 9]	Plant response rating: Field Violet [2, 10]	Plant response rating: Field Violet [2, 11]	Plant response rating: Field Violet [2, 12]	Plant response rating: Field Violet [2, 13]	Plant response rating: Speedwell [3, 10]	Plant response rating: Speedwell [3, 11]	Plant response rating: Speedwell [3, 12]	Plant response rating: Speedwell [3, 13]	Plant response rating: Windgrass [4, 10]	Plant response rating: Windgrass [4, 11]	Plant response rating: Windgrass [4, 12]	Plant response rating: Windgrass [4, 13]	Plant response rating: Barley, Winter [5, 10]	Plant response rating: Barley, Winter [5, 11]	Plant response rating: Barley, Winter [5, 12]	Plant response rating: Barley, Winter [5, 13]	also measured
FC(F)(F)COc1nn(-c2ccc(C(F)(F)F)cc2)nc1Cc1ccnc(C(F)(F)F)c1 [Compound 14, 4-[[5-(2,2,2-trifluoroethoxy)-2-[4-(trifluoromethyl)phenyl]-2H-1,2,3-triazol-4-yl]methyl]-2-(trifluoromethyl)pyridine]	100	100	100	100	100	100	100	100	100	100	100	100	30	40	75	100	10	25	35	40	Plant response rating, Field Violet [2, 14]: 75; Plant response rating, Field Violet [2, 15]: 90; Plant response rating, Field Violet [2, 16]: 95; Plant response rating, Field Violet [2, 17]: 95; Plant response rating, Speedwell [3, 14]: 100; Plant response rating, Speedwell [3, 15]: 100; Plant response rating, Speedwell [3, 16]: 100; Plant response rating, Speedwell [3, 17]: 100; Plant response rating, Windgrass [4, 14]: 10; Plant response rating, Windgrass [4, 15]: 20; Plant response rating, Windgrass [4, 16]: 40; Plant response rating, Windgrass [4, 17]: 85; Plant response rating, Barley, Winter [5, 14]: 0; Plant response rating, Barley, Winter [5, 15]: 0; Plant response rating, Barley, Winter [5, 16]: 10; Plant response rating, Barley, Winter [5, 17]: 35
COc1nn(-c2ccc(C(F)(F)F)cc2)nc1Cc1ccnc(C(F)F)c1 [Compound 138]	90	90	100	100	70	75	85	90	80	90	98	100	–	50	60	90	5	15	20	20	Plant response rating, Field Poppy [1]: 80; Plant response rating, Field Violet [2, 18]: 60; Plant response rating, Speedwell [3, 18]: 80; Plant response rating, Windgrass [4, 18]: 15; Plant response rating, Windgrass ([4]; Postemergence, 31 g ai/ha, scale 0 to 100): 30; Plant response rating, Barley, Winter [5, 18]: 5
COc1nn(-c2ccc(C(F)(F)F)cc2)nc1Cc1ccnc(C(F)(F)F)c1 [Compound 15, 4-[[5-methoxy-2-[4-(trifluoromethyl)phenyl]-2H-1,2,3-triazol-4-yl]methyl]-2-(trifluoromethyl)pyridine]	100	100	100	100	100	100	100	100	100	100	100	100	10	25	75	100	10	15	20	40	Plant response rating, Field Poppy [1]: 100; Plant response rating, Field Violet [2, 18]: 80; Plant response rating, Speedwell [3, 18]: 100; Plant response rating, Windgrass [4, 18]: 5; Plant response rating, Windgrass [4, 14]: 30; Plant response rating, Windgrass [4, 15]: 40; Plant response rating, Windgrass [4, 16]: 100; Plant response rating, Windgrass [4, 17]: 100; Plant response rating, Barley, Winter [5, 18]: 10; Plant response rating, Barley, Winter [5, 14]: 0; Plant response rating, Barley, Winter [5, 15]: 5; Plant response rating, Barley, Winter [5, 16]: 20; Plant response rating, Barley, Winter [5, 17]: 30
